What is called solubility is how much of the substance goes into solution per volume. Lower therefore signals a poorly soluble substance. What is called Ki is the dissociation constant of the complex between target and ligand, obtained from inhibition or displacement. A low value points to tighter binding.

Values after ≈ are worked out from the molar mass of the structure shown.

Series [1] concerns the target T1, human MIF (Homo sapiens (Human), UniProt P14174). Put plainly: X-ray crystallography of complexes with human MIF. The series is classed as binding. The method, then:
The solution was centrifuged at 13,000×g to remove precipitated compound and used to set up hanging-drop crystallization experiments. A reservoir of 2.0 M ammonium sulfate, 0.1 M Tris pH 7, and 3% isopropanol was added to the protein solution in a 1:1 ratio and stored at 20° C. Diffraction-quality crystals with a rod morphology grew within two weeks. The crystals were cryo-protected in 25% glycerol, 2.0M ammonium sulfate, 0.1 M Tris pH 7, and 3% isopropanol. Data was collected at the Advanced Photon Source remotely on the NE-CAT 24-ID-E beam line. […] Crystals were obtained by the hanging-drop method at 20° C. A reservoir of 2.2 M ammonium sulfate, 0.1 M Tris pH 7, and 3% isopropanol mixed in a 1:1 ratio with rhMIF (16 mg/mL) was used to produce 2 μL drops. […] Crystals were cryo-protected with 25% glycerol, 2.2 M ammonium sulfate, 0.1 M Tris pH 7, and 3% isopropanol. […] HKL2000 was used to index, integrate, and scale the MIF-3a data set in the […] space group and the MIF-3b in the P212121 space group. Phases were obtained by molecular replacement with PDB file 3U18 using the CCP4 and PHASER programs. Model building was performed in COOT with iterative restrained refinement with REFMAC.

The next series can be described thus: Aqueous solubility. The class given is physicochemical. The note with it: aqueous solvent (not further specified), μg compound/mL solvent.
Series [2] deals with T1, human MIF. Put plainly: Inhibition of tautomerase activity of human MIF (HPP substrate). The class given is biochemical. The note with it: MIF tautomerase, HPP substrate, 50 nM MIF.

For `Oc1ccc(-n2cc(-c3ccc4ccccc4n3)nn2)cc1` [Example 3a, 4-(4-(quinolin-2-yl)-1H-1,2,3-triazol-1-yl)phenol], the “binding site from X-ray crystal structure of complex” value (from here on “binding site”) at human MIF [1] is “confirm the binding of these inhibitors in the tautomerase active site”.
As for `COCCOc1ccc2nc(-c3cn(-c4ccc(O)cc4)nn3)ccc2c1` [Example 3b, 4-(4-(6-(2-methoxyethoxy)quinolin-2-yl)-1H-1,2,3-triazol-1-yl)phenol], the “binding site” value on human MIF [1] is listed as “confirm the binding of these inhibitors in the tautomerase active site”.
With `Oc1ccc(-n2cc(-c3ccc4cc(OCCOCCN5CCOCC5)ccc4n3)nn2)cc1` [Example 3v, 4-(4-(6-(2-(2-morpholinoethoxy)ethoxy)quinolin-2-yl)-1H-1,2,3-triazol-1-yl)phenol], the “binding site” value on human MIF [1] is “confirm the binding of these inhibitors in the tautomerase active site”.
`NCCOCCOc1ccc2nc(-c3cn(-c4ccc(O)c(F)c4)nn3)ccc2c1` [Example 34, 4-(4-(6-(2-(2-Aminoethoxy)ethoxy)quinolin-2-yl)-1H-1,2,3-triazol-1-yl)-2-fluorophenol]: in the series “Aqueous solubility”, the solubility amounted to 9.1 µg/mL (≈ 22.2 µM).
Same read-out and setting: the same measure for `O=C(O)CCCOc1ccc2nc(-c3cn(-c4ccc(O)c(F)c4)nn3)ccc2c1` [Example 43, 4-((2-(1-(3-Fluoro-4-hydroxyphenyl)-1H-1,2,3-triazol-4-yl)quinolin-6-yl)oxy)butanoic acid]: 19.2 µg/mL (≈ 47 µM).
In the case of `O=C(O)COCCOc1ccc2nc(-c3cn(-c4ccc(O)c(F)c4)nn3)ccc2c1` [Example 44, 2-(2-((2-(1-(3-Fluoro-4-hydroxyphenyl)-1H-1,2,3-triazol-4-yl)quinolin-6-yl)oxy)ethoxy)acetic acid], the solubility in “Aqueous solubility” was 867 µg/mL (≈ 2040 µM). The affinity on human MIF [2] corresponds to a Ki of 45 nM.
The molecule `O=C(O)COc1ccc2nc(-c3cn(-c4ccc(O)cc4)nn3)ccc2c1` [Example 45] had a solubility in the series “Aqueous solubility” of 364 µg/mL (≈ 1010 µM).

Source of the values: patent US10336721B2, “Biaryltriazole inhibitors of macrophage migration inhibitory factor” (YALE UNIVERSITY, priority 2015, dated 2019).
